Experimental findings from PubChem BioAssay AID540258 (Broad Institute, 2011) are described below.

Activity calls are given as the source filed them.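 How the source made its calls: active means fitted curve reaching 40% activation at or below the top valid dose tested; inconclusive means flat curve at 30 to 70% activation, or poor fit; inactive means the rest.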

The subject of this assay is SK-MEL-5 TRPM1 promoter luciferase reporter, 24 h. Kind of assay: MITF activators via TRPM1 promoter reporter, dose response, SK-MEL-5 cells, luciferase, cherry-pick samples (AID 540258).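 Further: potency for activators that raise TRPM1 promoter luciferase signal.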
For the compound `Cc1ccc(CONC(=O)c2ccc(C)cc2)cc1`, the AC40 was 6.05 µM. The figure for `Clc1ccc(C#Cc2cccnc2)cc1` is 5.78 µM; for `Cc1cccc(-n2ncc3c(N4CC(C)CC(C)C4)ncnc32)c1` (configuration not stated) it is 0.749 µM.

On to `O=C(NCCC1=CCCCC1)c1ccc(-n2cncn2)cc1`, for which the AC40 is 5.08 µM. With `CCCCC(=O)Nc1sc2c(c1C#N)CC(C)(C)OC2`, the AC40 is 5.29 µM. `COc1ccc(Oc2ncnc3sccc23)cc1`: the AC40 was 6.05 µM. The figure for `Cc1cc2ncc(-c3ccc(Cl)cc3)c(N)n2n1` is > 35 µM (inactive). On to `CC1CCN(c2ccc3c(c2)S(=O)(=O)c2ccccc2C3=O)CC1`, for which the AC40 was 0.442 µM. For the compound `Cc1ccc(Nc2nnc(-c3ccccc3N)o2)cc1C`, the AC40 was 1.59 µM. Consider `Cc1ccc(-c2nn(-c3ccccc3)cc2/C=N/O)cc1`, for which the AC40 is 10.2 µM.

Regarding `CCN(CC)C(=O)OCc1c(-c2ccccc2)ncc2ccccc12`, the AC40 was 11.9 µM. In the case of `O=C(N=Nc1c(O)n(Cc2ccccc2)c2ccccc12)c1ccc(O)cc1`, the AC40 is 0.86 µM. For `Cc1cccc2nc(COc3ccc4ccccc4c3Br)cn12`, the AC40 is 1.27 µM. Take `COC(=O)c1cn(CC(=O)NCc2cccs2)c2ccccc12`: the AC40 is 9.32 µM. The figure for `C/C(=N\OCc1ccc(C#N)cc1)c1ccc(S(=O)(=O)N(C)C)cc1` is > 35 µM (inactive).

For the compound `COc1ccc(C(=O)CN2Cc3ccccc3C2=N)cc1`, the AC40 was 4.86 µM. In the case of `COc1cccc(Nc2nc(-c3ccc(O)cc3)cs2)c1`, the AC40 was 3.18 µM.

`COc1ccc(C(=O)c2ccc(CC#N)s2)cc1`: the AC40 was 7.07 µM.

Turning to `C(=C\c1nnc(-c2cccs2)o1)/c1ccccc1`, the AC40 was 0.734 µM. The figure for `C/C(=N/NC(=O)c1ccncc1)c1ccc(NC(=O)c2ccc(Cl)cc2Cl)cc1` is > 35 µM (inactive). The result for `O=C(NC1CCCC1)c1cc(-c2ccc(Cl)cc2Cl)on1` reads 0.393 µM; that for `CC(C)C[C@@H](CSc1ccccc1)N1CCN(CC(C)C)CCC1=O`, 4.58 µM.

As to `O=C(Nc1cccnc1)c1cc(-c2ccc(Cl)cc2)on1`, the AC40 was 15.3 µM. The figure for `CC(C)c1ccc(NC(=O)Cn2ncc3ccccc32)cc1` is 6.86 µM.

Regarding `c1cnc2nc(-c3ccc4c(c3)OCO4)cn2c1`, the AC40 is 13.7 µM.

On to `CCCCc1ccc(Nc2ncnc3nc[nH]c23)cc1`, for which the AC40 was 3.37 µM. As to `CSc1nccc(N/N=C/c2ccccc2)n1`, the AC40 was 0.491 µM. The figure for `COC(=O)c1ccc(N2CCN(c3ccccc3)CC2)nc1` is 3.85 µM. As to `O=c1c(-c2nc3ccccc3s2)cccn1Cc1ccccc1`, the AC40 was 0.945 µM. As for `CCc1ccc(-c2cn3nc(-c4ccccc4)cnc3n2)cc1`, the AC40 is > 35 µM (inactive). Regarding `Cn1c(C(=O)NCCc2c[nH]c3ccccc23)cc2sccc21`, the AC40 was 3.4 µM.

Take `C/C(Cl)=C/CSc1nn2c(=O)c3ccccc3nc2s1`: the AC40 was 13 µM. On to `Cc1nc(-c2noc(-c3ccccc3Cl)n2)c(C(F)(F)F)o1`, for which the AC40 is 11.9 µM.

On to `O=C(Nc1ccccc1)N1CCC(c2ccccc2)C1` (configuration not stated), for which the AC40 was 1.8 µM. Regarding `Cc1ccccc1S(=O)(=O)Oc1ccc2ccc(O)cc2c1`, the AC40 was 25.7 µM. The figure for `Cc1ccc(NC(=O)Nc2ccc3oc(C)nc3c2)cc1` is 1.39 µM; for `Cn1c(NC(=O)CCC2CCCCC2)cc(=O)n(C)c1=O` it is 1.49 µM; for `O=C(O)c1ccccc1N/N=C/c1cc(Br)cc(Br)c1O` it is 4.58 µM. The result for `O=C1c2ccccc2NC(c2cccc(Cl)c2)N1N=C1CCCCCC1` (configuration not stated) reads > 35 µM (inactive). As for `CCCC(=O)N/C(N)=N/c1nc2ccccc2o1`, the AC40 is 0.558 µM.

Take `Brc1csc(/C=N/Nc2nc3ccccc3s2)c1`: the AC40 was 0.667 µM. As to `Clc1ccc(-c2ccc(SCc3ccccn3)nn2)cc1`, the AC40 is 2.39 µM.

Take `Cc1ccc(C(=O)Oc2cccc(-n3cnnn3)c2)cc1`: the AC40 was 4.7 µM. With `COc1ccc(NC(=O)c2ccc3[nH]c(C)c(C)c3c2)cc1`, the AC40 is 22.4 µM. For `Oc1ccc(/C=N/Nc2cccc(Cl)n2)c(O)c1`, the AC40 was 0.584 µM.

On to `c1ccc(CSc2ccc(-c3ccc4c(c3)OCO4)nn2)cc1`, for which the AC40 was 2.38 µM. The figure for `COc1ccc(/C(N)=N/OC(=O)c2cccs2)cc1OC` is 6.41 µM; for `O=C(NCCc1cccs1)c1ccc(Cl)c(Cl)c1` it is 3.47 µM. For `Cc1nc(N2CCN(S(=O)(=O)c3ccccc3)CC2)c2cc(-c3ccccc3)sc2n1`, the AC40 was 22.9 µM. Regarding `CC(=O)Nc1ccc2c(c1)ncn2-c1ccccc1`, the AC40 is 2.76 µM. Regarding `Nc1ccccc1C#Cc1ccccc1`, the AC40 was 0.777 µM. Consider `Cc1ccnc(NC(=O)C2CC(=O)N(Cc3ccccc3)C2)c1` (configuration not stated), for which the AC40 is 5.34 µM.

On to `COc1ccc(OCc2cc(C(=O)NC(C)c3cnn(C)c3)no2)c(Cl)c1` (configuration not stated), for which the AC40 was 12.3 µM. The figure for `c1ccc(Cc2cc(-c3ccccc3)on2)cc1` is 2.58 µM; for `Cc1ccc(C(=O)O/N=C(\N)c2ccc(Br)cc2)cc1` it is 7.84 µM; for `O=C1c2ccccc2/C(=C\C#Cc2ccccn2)N1c1ccccc1` it is 3.93 µM. For `CN1CCN(/N=C/c2ccc(Br)cc2)CC1`, the AC40 is 6 µM. Consider `Cc1ccc(-c2cc(-c3ccc(C)cc3O)[nH]n2)cc1`, for which the AC40 was 0.342 µM. `CCCCN1C(=O)/C(=C/C=C2\SCCN2C)SC1=S`: the AC40 is 5.57 µM. The result for `C=CCNc1nc(-c2ccc(Cl)cc2)cs1` reads 0.639 µM; that for `Cc1ccc(C2=NN(S(C)(=O)=O)C(c3cccs3)C2)cc1` (configuration not stated), 2.09 µM; that for `C=CCc1c(C)nc(-c2ccccc2)nc1N/N=C/c1ccncc1`, 7.06 µM.

In the case of `CCc1nc2oc3ccccc3c(=O)c2cc1C(=O)OC`, the AC40 is 5.7 µM. For `O=C(CCNc1ccccc1)c1ccc2c(c1)OCO2`, the AC40 was 1.12 µM. For the compound `O=c1c2ccccc2oc2cc(NCCCn3ccnc3)ccc12`, the AC40 is 0.989 µM. Take `CCn1c(/C=C/c2c[nH]c3ccccc23)nc2ccccc2c1=O`: the AC40 was 0.583 µM. For the compound `Cc1ccc(NC(=O)Nc2ccc3c(c2)N(C)C(=O)CS3)nc1`, the AC40 is 6.65 µM. Regarding `CCCC(=O)N1c2ccc(-c3csc(N)n3)cc2CC1C` (configuration not stated), the AC40 was 1.65 µM. On to `O=C(NCCSc1ccccn1)c1ccc(Cl)cc1Cl`, for which the AC40 was 0.959 µM. For the compound `Cc1cccc(NC(=O)c2sc3nc(N)c(C#N)cc3c2N)c1`, the AC40 was 2.61 µM.

Regarding `c1cnc(Nc2nc(-c3ccc4ccccc4c3)cs2)nc1`, the AC40 was 0.516 µM. The result for `Nc1ccc(CSc2ccc(Cl)cc2)c(Cl)c1` reads 1.98 µM; that for `CSc1nc(N)n2nc(-c3ccc(Cl)cc3)cc2n1`, 0.727 µM. The result for `CC(C)Nc1oc(-c2cccc3ccccc23)nc1C#N` reads 9.14 µM; that for `C/C(=N\O)c1ccc(N2C(=O)C3CC=C(Cl)CC3C2=O)cc1` (configuration not stated), 3.5 µM; that for `N#Cc1ccc(C(=O)NC2CCCCCCC2)cc1`, 3.62 µM. The figure for `O=S(=O)(c1ccccc1)n1ccc(-c2cnc(-c3ccccc3)s2)n1` is 7.87 µM. In the case of `Clc1ccc(OCc2noc(-c3ccsc3)n2)c(Cl)c1`, the AC40 is 1.45 µM. With `O=C(Cc1ccccc1)Nc1nc(-c2cccs2)cs1`, the AC40 was 14.7 µM. Turning to `CN(C)C(CNC(=O)c1cc2ccccc2oc1=O)c1ccccc1` (configuration not stated), the AC40 was 5.72 µM. Take `COc1cc2sc3cc(NCC[C@@H]4CCCN4C)ccc3c(=O)c2cc1OC`: the AC40 was 5.18 µM. On to `COc1ccc(NC(=S)c2ccccc2)cc1`, for which the AC40 was 3.97 µM.

Regarding `Cc1cc(C)c(NN=c2c(=O)c3ccccc3c2=O)c(C)c1`, the AC40 was 0.531 µM. The figure for `COc1ccc(/C=C/c2nc3ccccc3n2Cc2ccc(OC)c(OC)c2)cc1` is 1.93 µM. Turning to `Cc1cc(CN(C)C(=O)c2ccc3nc(Cc4ccccc4F)oc3c2)on1`, the AC40 is 14.1 µM. As to `Cc1ccc(N(O)C(=O)NCCCCNC(=O)N(O)c2ccc(C)cc2)cc1`, the AC40 was 15.5 µM.

As for `c1cc(-c2cc3cc4c(cc3cn2)OCO4)cs1`, the AC40 was 2.12 µM.

With `Cc1ccc(/C=N/Nc2ccc(Cl)nn2)cc1`, the AC40 is 1.93 µM. Take `COc1ccccc1C(=O)NCCC(=O)NC1CCC(C)CC1` (configuration not stated): the AC40 was 3.62 µM. Regarding `N/C(=N\OC(=O)C12CC3CC(CC(C3)C1)C2)c1ccccn1`, the AC40 was 8.23 µM.

With `Clc1ccc(-c2nc(C3CCCCC3)no2)cc1`, the AC40 was 1.23 µM.

With `COc1ccc(/C=C2\OC(=O)c3c(OC)cccc32)cc1OC`, the AC40 is 0.998 µM. Turning to `CCC(=O)Nc1ccc(-c2ccc(N3CCC(C)CC3)nn2)cc1`, the AC40 was 4.63 µM. Take `COc1ccc2c(c1)CCc1c(C(=O)NCC(C)C)noc1-2`: the AC40 was 0.867 µM. Consider `CCN(CC)C(=O)c1cc(-c2ccc(Br)cc2)on1`, for which the AC40 was 1.63 µM. For the compound `O=C(OCc1csc(-c2ccccc2)n1)c1ccc(O)cc1`, the AC40 was 7.95 µM. Regarding `CCCc1cc2c(=O)c(-c3ccccn3)coc2cc1OC`, the AC40 is 1.81 µM. In the case of `Cc1cccnc1NC(=O)Nc1cccc(Cl)c1`, the AC40 was 2.56 µM. On to `COC(=O)c1ccc(Nc2ncnc3sccc23)cc1`, for which the AC40 was 7.47 µM. On to `Cc1cccc(-c2cc(N)n(-c3ccccc3)n2)c1`, for which the AC40 is 0.712 µM. Consider `CC(C)(C)c1cc(NC(=O)Nc2ccccc2)no1`, for which the AC40 was 0.864 µM. `COc1ccc(NC(=O)CN(C)C(=O)CNC(=O)c2sc3ccccc3c2Cl)cc1`: the AC40 was 7.78 µM. With `CCC(C)NC(=O)c1cc(-c2ccc(OC)cc2)on1` (configuration not stated), the AC40 is 0.773 µM. For the compound `O=C(Nc1ccc(Cl)c(Cl)c1)Nc1ccccc1O`, the AC40 is 0.982 µM. As for `Cc1ccc(NCCC(=O)c2cccs2)cc1C`, the AC40 is 6.77 µM. Take `O=C(NC1CCCCCC1)c1c(O)c2ccccc2[nH]c1=O`: the AC40 is 1.1 µM. For `Cc1ccc(N2C(=O)S/C(=C/c3cn(C)c4ccccc34)C2=O)cc1`, the AC40 was 6.5 µM. With `CCCn1ncc2c(Nc3ccc(C)c(C)c3)ncnc21`, the AC40 is 4.16 µM. In the case of `Cc1ccc(NC(=O)CCCc2ccccc2)nc1`, the AC40 is 5.72 µM. For the compound `CC(C)Cc1cc(C(=O)Nc2ccc(Br)cc2)no1`, the AC40 was 1.8 µM. The figure for `Brc1ccc(/C=N/Nc2ccccc2)cc1` is 15.4 µM. As for `C1=C(c2cc3ccccc3cn2)CCCC1`, the AC40 is 1.08 µM.
